Results on 7 molecules are retold here after patent EP1861713B1, “METHOD OF SCREENING PET TRACERS FOR EARLY CANCER THEREAPY MONITORING” (GE Healthcare Limited, priority 2005, dated 2006).

Entries after “also recorded” stand apart in the source; their conditions may differ. Like-named read-outs stand apart in the source and are kept apart here.

One assay concerns MTSs of MCF-7 cell line. The assay can be described thus: Basic [18F]FDG uptake experiments in MTS (competition, inhibition, insulin). The format is cell-based, human. The procedure:
(§1) • a. Cells of the MCF-7 human breast cancer line (European Collection of Cell Culture) were grown in MEM/EBSS supplemented with 10% FCS, 1mM sodium pyruvate, 2mM L-glutamine, 1% non-essential amino acid and 5% penicillin (Tamro). […] Cells of the BT474 human breast cancer line (American Type Culture Collection) were grown in DMEM supplemented with 10% FCS, 1mM sodium pyruvate, and 5% penicillin (Tamro).
(§2) The MTSs were incubated for 50 min at 37°C with 0.5 ml medium per well containing 3MBq [^18F]FDG[21], and then washed 3x5 min with medium (1 ml/well).
To ensure the physiological validity of [^18F]FDG uptake in MTS, a number of basic experiments were performed: • Temperature dependence of [^18F]FDG uptake. The [^18F]FDG uptake experiments were performed with two different incubation temperatures: 4°C and 37°C. • Competition Experiment. Glucose concentration in the growing culture medium was 5 mM. To perform the competition experiment, unlabeled extra glucose was diluted in the growing culture medium with a concentration of 0mM (for the control group), 5mM, 10mM and 20mM. Culture medium was replaced by glucose/[^18F]FDG-containing culture medium. After 50 min incubation the [^18F]FDG uptake was measured. • Inhibition Experiment. The MTSs were pre-incubated with four different concentrations of an inhibitor of glucose transport, Cytochalasin-B; 0µM (for control group), 10µM, 25µM and 50µM followed by 50 min [^18F]FDG incubation. • Insulin-mediated [^18F]FDG uptake. The MTSs were pre-incubated with or without (control group) 10µM insulin followed by 50 min [^18F]FDG incubation.
It is noticeable that the basic experiments were performed only on MTSs of MCF-7 cell line. In each experimental set-up six MTSs in one 24-well plate were referred to as one group and the experiments were repeated three times.

For assay [1], the system named is MCF-7 human breast cancer line. As to the kind of experiment: PET tracer uptake in multicellular tumor spheroids (MTS) after anticancer treatment. The format is cell-based. Particulars: MCF-7 MTSs; 1 and 10µM; 3 and 5 days of treatment; normalized to control. The procedure: Cells of the MCF-7 human breast cancer line (European Collection of Cell Culture) were grown in MEM/EBSS supplemented with 10% FCS, 1mM sodium pyruvate, 2mM L-glutamine, 1% non-essential amino acid and 5% penicillin (Tamro).
After 1 h the medium was renewed.
In each experimental set-up four MTSs in one 24-well plate were referred to as one group. The groups included control (without treatment agent) and five different treatments with same concentration.
The response to each anticancer treatment was evaluated by measurement of the tracer uptake and total volume of the MTSs after 3 and 5 days of treatment.
Images of MTSs were recorded using a Nikon Colorpix 4500 camera mounted on an inverted Zeiss microscope before Tracer incubation. The acquired data were analyzed by SASDM.
To monitor the effect of each anti-cancer treatment five established PET-tracers; [1-^11C]Acetate, [^11C]Choline, [^11C]Methionine, [^18F]3'-Deoxy-3'-fluorthymifine and 2-[^18F]Fluor-2-deoxyglucose were utilized.
The aggregates were incubated for 30 min (for ^18F-labled tracers) and 50 min (for ^11C-labled tracers) at 37°C with 0.5 ml medium per well containing 3MBq Tracer, and then washed 3x5 min (for ^18F-labled tracers) and 3x3 min (for ^11C-labled tracers) with medium (1 ml/well).
The Tracer-uptake in MTS was defined as: Total uptake = (Act conc.(Bq/ml)of MTS)/(Act conc.(Bq/ml)of reference) [formula]
Each experiment set-up was repeated three times.

The subject of assay [2] is MCF-7 human breast cancer line. The assay can be described thus: [18F]FDG uptake per viable volume of MTS after anticancer treatment (MCF-7). In kind it is cell-based. Particulars: MCF-7 MTSs; for [^18F]FDG uptake per viable volume: highest dose of 1 µM. The procedure:
as §1, §2
For the MCF-7 cell line, each group included 6 replicates and the experiments were repeated twice.
The response to each anticancer treatment was evaluated by measurement of the [^18F]FDG uptake and viable volume of the MTSs after 2 and 3 days of treatment.

In assay [3] the test system is BT474 human breast cancer line. The assay can be described thus: [18F]FDG uptake per viable volume of MTS after anticancer treatment (BT474). Particulars: BT474 MTSs.

With `C=C1[C@@H](C)[C@H]2[C@H](Cc3ccccc3)NC(=O)[C@]23OC(=O)/C=C/[C@H](O)CCC[C@@H](C)C/C=C/[C@H]3[C@@H]1O` [Cytochalasin B], the “[^18F]FDG uptake” value in the assay with MTSs of MCF-7 cell line (glucose-transport inhibitor added to incubation medium, 10-50µM) is on record as “significantly decreased”. In addition, the IC50 in the assay on MTSs of MCF-7 cell line (pre-incubation 0, 10, 25, 50µM, then 50 min [18F]FDG incubation, read-out: 50% inhibition of [^18F]FDG uptake) was 0.012 mM.
For `CC(=O)O[C@@]12CO[C@@H]1C[C@H](O)[C@@]1(C)C(=O)[C@H](O)C3=C(C)[C@@H](OC(=O)[C@H](O)[C@@H](NC(=O)OC(C)(C)C)c4ccccc4)C[C@@](O)([C@@H](OC(=O)c4ccccc4)[C@H]21)C3(C)C` [Docetaxel], in assay [1], the CHO-uptake result is “increase”, the FLT-uptake result is “decreased” and the MET-uptake entry is reported as “increase”.
With `COc1cccc2c1C(=O)c1c(O)c3c(c(O)c1C2=O)C[C@@](O)(C(=O)CO)C[C@@H]3O[C@H]1C[C@H](N)[C@H](O)[C@H](C)O1` [Doxorubicin], in assay [1], the ACE-uptake entry is “less decrease”, the FDG-uptake result was “less decrease” and the FLT-uptake entry was “considerable FLT-reduction; also recorded: decreased”. For the same molecule, in assay [2] (at the highest dose), the “reduction of [^18F]FDG uptake per viable volume” value is 25%. Moreover, the “[^18F]FDG uptake per viable volume” value in assay [2] is listed as “decreased”. Moreover, the “[^18F]FDG uptake per viable volume” value in assay [3] (at the highest dose) was “reduced; also recorded: decreased”.
With `Cc1ccc(NC(=O)c2ccc(CN3CCN(C)CC3)cc2)cc1Nc1nccc(-c2cccnc2)n1` [Imatinib], in assay [1], the CHO-uptake result was “decrease” and the FLT-uptake entry was “increase”.
For the molecule `CC(=O)O[C@H]1C(=O)[C@@]2(C)[C@H]([C@H](OC(=O)c3ccccc3)[C@]3(O)C[C@H](OC(=O)[C@H](O)[C@@H](NC(=O)c4ccccc4)c4ccccc4)C(C)=C1C3(C)C)[C@]1(OC(C)=O)CO[C@@H]1C[C@@H]2O` [Paclitaxel], in assay [1], the ACE-uptake entry is on record as “approximately as non-treated MTSs”, the FDG-uptake entry is listed as “approximately as non-treated MTSs” and the FLT-uptake result is reported as “significant decrease; also recorded: decreased”. In addition, the “[^18F]FDG uptake per viable volume (glucose transport)” value in assay [2] (10nM, 100nM, 1µM, 2 and 3 days, overall) is reported as “more moderate”. In assay [3] (lowest dose and shorter treatment time), the “glucose transport per viable volume” value is recorded as “reduced”.
Take `CC/C(=C(\c1ccccc1)c1ccc(OCCN(C)C)cc1)c1ccccc1` [Tamoxifen]: in assay [1], the ACE-uptake entry was “increase”, the FLT-uptake result is “decreased” and the MET-uptake result was “decrease”. In addition, in assay [2], the “[^18F]FDG uptake per viable volume” value is “reduced”.
`OC[C@H]1OC(O)[C@H](O)[C@@H](O)[C@@H]1O` (stereo partly drawn) [glucose]: the IC50 in the assay with MTSs of MCF-7 cell line (Homo sapiens, MCF7, 50 min, unlabeled extra glucose 0, 5, 10, 20mM added to medium (5 mM glucose), 50 min incubation, read-out: concentration inducing a 50% reduction of [^18F]FDG uptake compared to control) turned out to be 10 mM. Further, in the assay on MTSs of MCF-7 cell line (increasing concentration of glucose added to incubation medium), the “[^18F]FDG uptake in MTSs” value is reported as “gradually decreased”.
